Data from patent US6716829B2, “Aldosterone antagonist and cyclooxygenase-2 inhibitor combination therapy to prevent or treat inflammation-related cardiovascular disorders” (Pharmacia Corporation, priority 2000, dated 2004).
Where “and” joins values, the source holds several entries; their conditions need not be identical. Equal values may be shown once. Entries after “also recorded” stand apart in the source; their conditions may differ.

Experiments:
[1] = system: Intracellular adhesion molecule-1 (ICAM-1); assay: Assay C: ICAM-1 mRNA in heart by TaqMan RT-PCR; format: in vivo, Male Sprague-Dawley rats; settings: for ICAM mRNA (AU): relative to cyclophilin expression, mean ± SEM, eplerenone dose 100 mg/kg/day; for ICAM (AU): mRNA; for ICAM-1 mRNA expression: myocardium, aldosterone + salt, 7, 14, 30 days, eplerenone 100 mg/kg/day
Description: (§1) The procedure of Assay B was expanded upon in a further study. […] Myocardial tissue from animals in each treatment group was examined after 7, 14, or 30 days of treatment.
(§2) Potassium chloride supplementation was added to the saline solution in order to prevent the potential hypokalemia associated with aldosterone excess.
(§3) At the time of the surgery, an Alzet 2002 osmotic minipump (Alza Corp., Palo Alto, Calif.) containing either vehicle (9% ethanol/87% propylene glycol/4% dH2O) or 1.0 mg/mL d-aldosterone (Sigma Chemical, St. Louis, Mo.) was inserted subcutaneously at the nape of the neck. Aldosterone was administered at a dose of 0.75 µg/hour. […] Animals were sacrificed from each group (n=8-13) after 7, 14, or 30 days of treatment.
(§4) The fluorogenic 5′-nuclease assay (TaqMan PCR) using Applied Biosystems' 7700 Sequence Detection System (Applied Biosystems, Foster City, Calif.) allowed for real time detection/quantitation of a specific gene by monitoring the increase in fluorescence of a gene-specific, dye-labeled oligonucleotide probe. Probes for target and reference genes were labeled at the 5′-end with a 6-carboxyfluorescein (6FAM) reporter dye and at the 3′-end with a 6-carboxy-N,N,N′,N′-tetramethylrhodamine (TAMRA) quencher dye. When the probe was annealed to the target gene, fluorescence of 6FAM was prevented by the close proximity of TAMRA. The exonuclease activity of Taq polymerase released the dyes from the oligonucleotide probe by displacing the probe from the target sequence resulting in fluorescence excitation in direct proportion to the amount of target message present. Data analysis was performed using the Sequence Detection System software from Applied Biosystems.
(§5) All primers and probes were designed using Primer Express software supplied with the 7700 Sequence Detection System and synthesized by Applied Biosystems. Standard curves using 5-fold dilutions of total RNA (from 200 ng to 320 pg) were performed to determine the efficiency of each primer/probe set in the TaqMan reaction prior to the analysis of the experimental samples. Primer/probe sets were designed from known sequences of rat genes to be analyzed. All target gene values were normalized to a reference gene, constitutively expressed cyclophilin. Primer/probe set sequences can be found in Table 8.
(§6) RNA was extracted from frozen (−80° C.) rat heart tissue using the Totally RNA Isolation Kit (Ambion, Inc., Austin, Tex.). Tissue was crushed using a stainless steel mortar and pestle, which had been chilled to −80° C. and transferred to a dounce homogenizer (Kontes, Vineland, N.J.) containing 3-10 mL cold denaturation buffer. Tissue was homogenized and transferred to a sterile, 15 mL polypropylene centrifuge tube. An equal volume of phenol:chloroform:isoamyl alcohol (25:24:1) was added, samples were shaken vigorously for 1 min, and incubated on ice for at least 15 min. Samples were centrifuged for 30 min at 10,000g. The aqueous phase was removed, 1/10 volume of a sodium acetate solution (3.0 M NaOAc pH 4.5) was added, samples were shaken or inverted for 10 seconds, and acid-phenol (premixed with isoamyl alcohol):chloroform (5:1, Ambion, Inc.) was added at an volume equivalent to the starting sample volume. Samples were shaken vigorously for 1 min, followed by a 15-min incubation on ice, and centrifuged for 30 min at 10,000 g. The aqueous phase removed and placed in a clean polypropylene tube. An equal volume of isopropanol (Sigma, St. Louis, Mo.) was added and the samples were mixed and incubated overnight at −20° C. The samples were centrifuged for 30 min at 10,000 g, the supernatant was removed and the RNA pellet was resuspended in DNAse/RNAse-free water. Samples were frozen at −80° C. for at least 2 hours, thawed on wet ice, and diluted for quantitation.

[2] = system: Osteopontin; assay: Assay C: osteopontin mRNA in heart by TaqMan RT-PCR; format: in vivo, Male Sprague-Dawley rats; settings: for Osteop-pontin mRNA (AU): relative to cyclophilin expression, mean ± SEM, eplerenone dose 100 mg/kg/day; for Osteopontin (AU): mRNA, individual rats, incl. rat marked * excluded from statistics
Description: as §1, §2, §3, §4, §5, §6

[3] = system: coronary arteries of angiotensin II/salt-treated animals; assay: Assay A: heart histology (hematoxylin&eosin), vascular inflammatory lesions and myocardial injury; format: in vivo, Male Wistar rats; settings: eplerenone 100 mpk; for Vascular inflammation and myocardial injury in the heart: angiotensin II infused rats, aldosterone replacement in adrenalectomized rats
Excerpt: Sacrifice by exanguination after 4 weeks. Blood was be collected in dry tubes for determination of serum electrolytes and in EDTA-containing tubes for measurement of aldosterone and corticosterone levels Hearts were stained with hematoxylin&eosin and have been analyzed for determination of morphologic abnormalities (i.e. necrosis, vascular injury).

[4] = group mean, data used for Table 17 (7-day protocol)
[5] = group mean, data used for Table 18 (14-day protocol)
[6] = group mean, data used for Table 19 (30-day protocol)

For `C[C@]12CCC(=O)C=C1CC[C@@H]1[C@@H]2[C@@H](O)C[C@]2(C=O)[C@@H](C(=O)CO)CC[C@@H]12` [Aldosterone], the “ICAM mRNA (AU)” value ([1]; after 7 days of treatment) was 1.22 AU, the “ICAM mRNA (AU)” value ([1]; after 14 days of treatment) was 1.47 AU and the “ICAM mRNA (AU)” value ([1]; after 30 days of treatment) was 1.81 AU. For the same compound, the “ICAM (AU)” value [1, 4] was 1.22 AU, the “ICAM (AU)” value [1, 5] was 1.47 AU and the “ICAM (AU)” value [1, 6] was 1.81 AU. For the same compound, the “ICAM (AU)” value ([1]; individual rats, data used for Table 17 (7-day protocol), incl. rat marked * excluded from statistics, listed as Aldosterone + salt) was 1.39 AU and 0.80 AU and 1.09 AU and 1.61 AU and 1.11 AU and 1.15 AU and 1.56 AU and 1.06 AU and 1.68 AU, the “ICAM (AU)” value ([1]; individual rats, data used for Table 18 (14-day protocol), incl. rat marked * excluded from statistics, listed as Aldosterone + salt) was 1.16 AU and 1.18 AU and 1.75 AU and 1.15 AU and 1.91 AU and 1.19 AU and 1.82 AU and 1.57 AU and 1.84 AU and the “ICAM (AU)” value ([1]; individual rats, data used for Table 19 (30-day protocol), incl. rat marked * excluded from statistics, listed as Aldosterone + salt) was 2.67 AU and 1.63 AU and 1.69 AU and 1.50 AU and 1.54 AU. For the same compound, the “ICAM-1 mRNA expression” value [1] was “upregulated at day 14 and 30”, the “Osteop-pontin mRNA (AU)” value ([2]; after 7 days of treatment) was 1.91 AU and the Osteopontin expression upregulation ([2]; after 14 days of aldosterone + salt treatment) was ~6 fold. The “Osteop-pontin mRNA (AU)” value ([2]; after 14 days of treatment) was 6.56 AU, the Osteopontin expression upregulation ([2]; after 30 days of aldosterone + salt treatment) was ~13 fold and the “Osteop-pontin mRNA (AU)” value ([2]; after 30 days of treatment) was 13.27 AU. For the same compound, the “Osteopontin (AU)” value ([2]; data used for Table 17 (7-day protocol), listed as Aldosterone + salt) was 1.84 AU and 0.84 AU and 0.95 AU and 1.05 AU and 1.08 AU and 4.92 AU and 3.29 AU and 1.32 AU and 28.64 AU, the “Osteopontin (AU)” value ([2]; data used for Table 18 (14-day protocol), listed as Aldosterone + salt) was 8.14 AU and 1.02 AU and 6.19 AU and 4.06 AU and 12.04 AU and 2.35 AU and 8.25 AU and 10.41 AU and 81.29 AU and the “Osteopontin (AU)” value ([2]; data used for Table 19 (30-day protocol), listed as Aldosterone + salt) was 13.13 AU and 11.43 AU and 13.78 AU and 7.97 AU and 18.44 AU and 14.88 AU. For the same compound, the “Vascular inflammation and myocardial injury in the heart” value [3] was “restored the severe coronary and myocardial inflammation and injury”.

For `COC(=O)[C@@H]1CC2=CC(=O)CC[C@]2(C)[C@@]23O[C@@H]2C[C@@]2(C)[C@@H](CC[C@@]24CCC(=O)O4)[C@H]13` [Eplerenone], the “ICAM mRNA (AU)” value ([1]; after 7 days of treatment) was 0.83 AU, the “ICAM mRNA (AU)” value ([1]; after 14 days of treatment) was 1.19 AU and the “ICAM mRNA (AU)” value ([1]; after 30 days of treatment) was 1.22 AU. For the same compound, the “ICAM (AU)” value [1, 4] was 0.83 AU, the “ICAM (AU)” value [1, 5] was 1.19 AU and the “ICAM (AU)” value [1, 6] was 1.22 AU. The “ICAM (AU)” value ([1]; individual rats, data used for Table 17 (7-day protocol), incl. rat marked * excluded from statistics, listed as Eplerenone + aldosterone + salt) was 0.91 AU and 0.89 AU (2×) and 0.40 AU and 1.23 AU and 0.58 AU and 1.00 AU, the “ICAM (AU)” value ([1]; individual rats, data used for Table 18 (14-day protocol), incl. rat marked * excluded from statistics, listed as Eplerenone + aldosterone + salt) was 1.20 AU and 1.36 AU and 0.95 AU and 1.26 AU and 1.56 AU and 0.98 AU (2×) and 1.51 AU and 0.79 AU and 1.72 AU and 0.83 AU and the “ICAM (AU)” value ([1]; individual rats, data used for Table 19 (30-day protocol), incl. rat marked * excluded from statistics, listed as Eplerenone + aldosterone + salt) was 1.54 AU and 2.06 AU and 1.01 AU and 1.21 AU and 1.26 AU and 1.06 AU and 0.60 AU and 0.99 AU and 2.92 AU. For the same compound, the “ICAM-1 mRNA expression” value [1] was “inhibition; also recorded: significantly reduced”, the “Osteop-pontin mRNA (AU)” value ([2]; after 7 days of treatment) was 0.75 AU and the “Osteop-pontin mRNA (AU)” value ([2]; after 14 days of treatment) was 2.94 AU. The “Osteop-pontin mRNA (AU)” value ([2]; after 30 days of treatment) was 2.59 AU, the “Osteopontin (AU)” value ([2]; data used for Table 17 (7-day protocol), listed as Eplerenone + aldosterone + salt) was 0.54 AU and 1.24 AU and 0.52 AU and 0.27 AU and 0.60 AU and 1.13 AU and 0.96 AU and 0.75 AU and the “Osteopontin (AU)” value ([2]; data used for Table 18 (14-day protocol), listed as Eplerenone + aldosterone + salt) was 4.03 AU and 1.00 AU and 0.77 AU and 8.43 AU and 1.59 AU and 3.97 AU and 3.93 AU and 2.13 AU and 0.72 AU and 4.76 AU and 0.99 AU. The “Osteopontin (AU)” value ([2]; data used for Table 19 (30-day protocol), listed as Eplerenone + aldosterone + salt) was 1.53 AU and 3.28 AU and 1.98 AU and 8.91 AU and 1.88 AU and 1.97 AU and 1.28 AU and 1.43 AU and 1.01 AU and 54.57 AU, the “Osteopontin mRNA expression” value ([2]; myocardium, aldosterone + salt, 7, 14, 30 days, eplerenone 100 mg/kg/day) was “inhibition; also recorded: significantly reduced” and the “Vascular inflammation and myocardial injury in the heart” value [3] was “prevention”. The “Animals with vascular inflammatory changes (lesions) in the coronary arteries” value ([3]; of ten animals per group, angiotensin II/salt, 4 weeks) was “one of the ten”.
